Earlier results on 1 compound are cited in patent publication US20030083378A1, “Eye drops” (priority 2000, published 2003).

Structures are written as SMILES.

In data set [1] the test system is leukotrienes. The note with it: Japanese Unexamined Patent Publication No. Hei 2-1459.
The subject of data set [2] is respiratory anaphylaxis. The note with it: Japanese Unexamined Patent Publication No. Hei 2-1459.

With `CCCc1c(SCCCOc2ccc(C(C)=O)c(OCCCC(=O)O)c2CCC)ccc(C(C)=O)c1O` [KCA-757, 4-[6-acetyl-3-[3-[(4-acetyl-3-hydroxy-2-propylphenyl)thio]propoxy]-2-propylphenoxy]butyric acid], the Solubility entry is “slightly soluble”. Besides, the Leukotriene antagonist activity entry in data set [1] is “potent and selective leukotriene antagonist activity”. Also, the “Inhibitory function on respiratory anaphylaxis” value in data set [2] is reported as “inhibitory function on respiratory anaphylaxis”.
